Article PMC6332220, “Synthesis, Characterization and Biological Evaluation of Some Quinoxaline Derivatives: A Promising and Potent New Class of Antitumor and Antimicrobial Agents” (Molecules, 2015)
Values after ≈ are worked out from the molar mass of the structure shown.

Tests used:
Aspergillus flavus = assay: Disk diffusion, Aspergillus flavus; assay type: cell-based; details: Fungi, 8.0 mm disks, 10 μL
Experimental: (§1) The disk diffusion method was used for determination of the antimicrobial activity using ampicillin, gentamicin and amphotericin B as reference drugs. The results were recorded for each compounds as the average diameter as inhibition zones (IZ) of bacterial or fungal growth around the discs in mm as shown in Table 2.
(§2) Antimicrobial activities were carried out against highly pathogenic strains; three strains of Gram positive bacteria (Bacillus subtilis, Staphylococcus aureus and Streptococcus faecalis), four strains of Gram negative bacteria (Escherichia coli, Neisseria gonorrhoeae, Pseudomonas aeruginosa and Salmonella typhimurium) and three fungi strains (Aspergillus flavus, Aspergillus fumigatus and Candida albicans) isolated from primary agar plates. Antimicrobial activity of the tested samples was determined using a modified Kriby-Bauer disk diffusion method. Briefly, 100 µL of the test bacteria/fungi were grown in 10 mL of fresh media until they reached a count approximately 10^8 cells/mL for bacteria or 10^5 cells/mL for fungi. 100 µL of microbial suspension was spread onto agar plates corresponding to the broth in which they were maintained. The inoculated plates of bacterial strains were incubated at 35–37 °C for 24–48 h, while the inoculated plates of fungal strains such as A. flavus and A. fumigatus were incubated at 25 °C for 48 h and yeast as C. albicans was incubated at 30 °C for 24–48 h.
(§3) The agar disk diffusion (qualitative) method was used in this investigation for determination of the preliminary antibacterial and antifungal activities. The agar used was Mueller-Hinton agar plates that are rigorously tested for composition and pH. Further the depth of the agar in the plate is a factor to be considered in the disk diffusion method.
(§4) Reference drugs: ampicillin was used as a standard antibacterial drug for Gram positive bacteria, gentamicin as a standard antibacterial drug for Gram negative bacteria and amphotericin B as antifungal standard drug.
(§5) Bacterial and fungal strains were spread onto the surface of the agar plates using sterile cotton swabs. For evaluation of antibacterial activities, blank paper disks (Schleicher & Schuell, Alicante, Spain) with a diameter of 8.0 mm were saturated with 10 μL of tested concentration of the stock solutions. Disks were dried and then placed onto inoculated agar plates. The plates of bacterial strains were reincubated at 35–37 °C for 24–48 h, while the plates of fungal strains such as A. flavus and A. fumigatus were reincubated at 25 °C for 48 h and yeast as C. albicans was reincubated at 30 °C for 24–48 h as mentioned above. […] For an accurate analysis, tests were run in triplicate for each strain to avoid any error as described in Table 2.
(§6) Disk diffusion method for filamentous fungi testing by using approved standard method (M02-A11) developed by the CLSI for evaluating the susceptibilities of filamentous fungi to antifungal agents. Disk diffusion method for yeasts developed by using approved standard method (M44-A2) by the CLSI [44]. Agar-based methods such as disk diffusion can be good alternatives because they are simpler and faster than broth-based methods.

Aspergillus fumigatus = assay: Disk diffusion, Aspergillus fumigatus; assay type: cell-based; details: Fungi, 8.0 mm disks, 10 μL
Experimental: as §1, §2, §3, §4, §5, §6

Candida albicans = assay: Disk diffusion, Candida albicans; assay type: cell-based; details: Fungi, 8.0 mm disks, 10 μL
Experimental: as §1, §2, §3, §4, §5, §6

Bacillus subtilis = assay: Disk diffusion, Bacillus subtilis; assay type: cell-based; details: Gram positive, 8.0 mm disks, 10 μL
Experimental: as §1, §2, §3, §4, §5

Staphylococcus aureus = assay: Disk diffusion, Staphylococcus aureus; assay type: cell-based; details: Gram positive, 8.0 mm disks, 10 μL
Experimental: as §1, §2, §3, §4, §5

Streptococcus faecalis = assay: Disk diffusion, Streptococcus faecalis; assay type: cell-based; details: Gram positive, 8.0 mm disks, 10 μL
Experimental: as §1, §2, §3, §4, §5

[1] = test system: MCF-7 (breast adenocarcinoma); assay: In vitro cytotoxicity, SRB cell growth assay, MCF-7; details: Homo sapiens, MCF7, 48 h, read-out: IC50 (μg/mL) MCF-7
Experimental: (§7) The in vitro cytotoxic activity of the newly synthesized compounds against human breast cell line (MCF7), non-small cell lung cancer NCIH460, CNS cancer SF-268 and WI 38 (normal fibroblast cells) were evaluated using doxorubicin as the reference drug according to the method reported by Skehan et al..
(§8) The newly synthesized compounds were evaluated in vitro against three human cancer cell lines; which are MCF-7 (breast adenocarcinoma), NCI-H460 (non-small cell lung cancer) and SF-268 (CNS cancer), and WI 38 (normal fibroblast cells) were used in this study. MCF-7 was obtained from the European Collection of Cell Cultures (ECACC, Salisbury, UK) but NCI-H460, SF-268 and WI 38 were kindly provided by the National Cancer Institute (NCI, Cairo, Egypt). They grow as monolayer and routinely maintained RPMI-1640 medium supplemented with 5% heat inactivated fetal bovine serum (FBS), 2 mM glutamine and antibiotics (penicillin 100 U/mL, streptomycin 100 µg/mL), at 37 °C in a humidified atmosphere containing 5% CO2. Exponentially growing cells were obtained by plating 1.5 × 10^5 cells/mL for MCF-7 and SF-268, and 0.75 × 10^4 cells/mL for NCI-H460 followed by 24 h of incubation. The effect of the vehicle solvent (DMSO) on the growth of these cell lines was evaluated in all experiments by exposing untreated control cells to the maximum concentration (0.5%) of DMSO used in each assay.
(§9) The effect of compounds on the in vitro growth of human tumor cell lines were evaluated according to the procedure adopted by the National Cancer Institute ([…]) in the “In vitro Anticancer Drug Discovery Screen” that uses the protein-binding dye sulforhodamine B (SRB) to assess cell growth. In the assay protocol, all cells were incubated at 37 °C under humidified atmosphere containing 5% CO2. Briefly, exponentially cells growing in 96-well plates were then exposed for 48 h to five serial concentrations of each compound, starting from a maximum concentration of 150 μg/mL. Following this exposure period adherent cells were fixed, washed and stained. The bound stain was solubilized and the absorbance was measured at 492 nm in a plate reader (Bio-Tek Instruments Inc., Power wave XS, Winston, NC, USA). For each test compound and cell line, a dose response curve was obtained and the inhibitory concentration of 50% (IC50), corresponding to the concentration of the compounds that inhibited 50% of the net cell growth was calculated as described elsewhere. Doxorubicin was used as a positive control and tested in the same manner.

[2] = test system: NCI-H460 (non-small cell lung cancer); assay: In vitro cytotoxicity, SRB cell growth assay, NCI-H460; details: Homo sapiens, NCI-H460, 48 h, read-out: IC50 (μg/mL) NCI-H460
Experimental: as §7, §8, §9

SF-268 (CNS cancer) = assay: In vitro cytotoxicity, SRB cell growth assay, SF-268; details: Homo sapiens, SF-268, 48 h, read-out: IC50 (μg/mL) SF-268
Experimental: as §7, §8, §9

[3] = test system: WI 38 (normal fibroblast cells); assay: In vitro cytotoxicity, SRB cell growth assay, normal cells WI 38; assay type: cell-based, human; details: 48 h exposure, non-cytotoxic = IC50 >100 μg/mL; for IC50: Homo sapiens, WI-38, 48 h
Experimental: as §7, §8, §9

Escherichia coli = assay: Disk diffusion, Escherichia coli; assay type: cell-based; details: Gram negative, 8.0 mm disks, 10 μL
Experimental: as §1, §2, §3, §4, §5

Neisseria gonorrhoeae = assay: Disk diffusion, Neisseria gonorrhoeae; assay type: cell-based; details: Gram negative, 8.0 mm disks, 10 μL
Experimental: as §1, §2, §3, §4, §5

Pseudomonas aeruginosa = assay: Disk diffusion, Pseudomonas aeruginosa; assay type: cell-based; details: Gram negative, 8.0 mm disks, 10 μL
Experimental: as §1, §2, §3, §4, §5

Salmonella typhimurium = assay: Disk diffusion, Salmonella typhimurium; assay type: cell-based; details: Gram negative, 8.0 mm disks, 10 μL
Experimental: as §1, §2, §3, §4, §5

| Structure (SMILES) | Inhibition Zone Diameter (IZ) (mm) Aspergillus flavus (Aspergillus flavus) | Inhibition Zone Diameter (IZ) (mm) Aspergillus fumigatus (Aspergillus fumigatus) | Inhibition Zone Diameter (IZ) (mm) Candida albicans (Candida albicans) | Inhibition Zone Diameter (IZ) (mm) Bacillus subtilis (Bacillus subtilis) [mm] | Inhibition Zone Diameter (IZ) (mm) Staphylococcus aureus (Staphylococcus aureus) [mm] | Inhibition Zone Diameter (IZ) (mm) Streptococcus faecalis (Streptococcus faecalis) [mm] | IC50 [1] [µg/mL] | IC50 [2] [µg/mL] | IC50 (SF-268 (CNS cancer)) [µg/mL] | IC50 [3] [µg/mL] | Inhibition Zone Diameter (IZ) (mm) Escherichia coli (Escherichia coli) [mm] | Inhibition Zone Diameter (IZ) (mm) Neisseria gonorrhoeae (Neisseria gonorrhoeae) | Inhibition Zone Diameter (IZ) (mm) Pseudomonas aeruginosa (Pseudomonas aeruginosa) [mm] | Inhibition Zone Diameter (IZ) (mm) Salmonella typhimurium (Salmonella typhimurium) [mm] | melting point [°C] | IC50 (μg/mL) WI 38 [3] |
| --- | --- | --- | --- | --- | --- | --- | --- | --- | --- | --- | --- | --- | --- | --- | --- | --- |
| C[C@@H]1[C@H](O)[C@@H](C)/C=C/C=C/C=C/C=C/C=C/C=C/C=C/[C@H](O[C@@H]2O[C@H](C)[C@@H](O)[C@H](N)[C@@H]2O)C[C@@H]2O[C@](O)(C[C@@H](O)C[C@@H](O)[C@H](O)CC[C@@H](O)C[C@@H](O)CC(=O)O[C@H]1C)C[C@H](O)[C@H]2C(=O)O [Amphotericin B, reference compound] | 17 mm | 23 mm | 19 mm | – | – | – | – | – | – | – | – | – | – | – | – | – |
| CC1(C)S[C@@H]2[C@H](NC(=O)[C@H](N)c3ccccc3)C(=O)N2[C@H]1C(=O)O [Ampicillin, reference compound] | – | – | – | 20 | 22 | 19 | – | – | – | – | – | – | – | – | – | – |
| Cc1cc(C)n(-c2nc3cc(Br)ccc3nc2Cl)n1 [Compound 6, 6-Bromo-2-chloro-3-(3,5-dimethyl-1H-pyrazol-1-yl)quinoxaline] | R (R (IZ = 0 mm)) | R (R (IZ = 0 mm)) | R (R (IZ = 0 mm)) | 11 | 9 | 11 | 22.4 ± 10.4 (≈ 66.4 µM) | 30.5 ± 10.8 (≈ 90.3 µM) | 26.5 ± 2.87 (≈ 78.5 µM) | 28.2 ± 0.87 (≈ 83.7 µM) | 11 | 11 mm | 9 | 8 | 81 to 83 | – |
| NNc1nc2cc(Br)ccc2n2nnnc12 [Compound 7, 7-Bromo-4-hydrazinyltetrazolo[1,5-a]quinoxaline] | R (R (IZ = 0 mm)) | R (R (IZ = 0 mm)) | R (R (IZ = 0 mm)) | 11 | 10 | 11 | 26.4 ± 2.1 (≈ 94.3 µM) | 12.4 ± 3.01 (≈ 44.3 µM) | 10.6 ± 2.83 (≈ 38 µM) | – | 10 | 10 mm | 10 | 9 | 237 to 239 | non-cytotoxic |
| Clc1ccc(C=NNc2nc3cc(Br)ccc3nc2Cl)cc1 [Compound 8, 6-Bromo-2-chloro-3-[2-(4-chlorobenzylidene)hydrazinyl]quinoxaline] | R (R (IZ = 0 mm)) | R (R (IZ = 0 mm)) | R (R (IZ = 0 mm)) | 9 | 9 | 10 | 42.2 ± 2.46 (≈ 106 µM) | 26.6 ± 2.63 (≈ 67.2 µM) | 35.3 ± 12.8 (≈ 89.2 µM) | 10.6 ± 5.51 (≈ 26.7 µM) | 11 | 9 mm | 9 | 7 | 187 to 189 | – |
| Cc1c[nH]nc2c3n[nH]cc(C)n-3c3cc(Br)ccc3n1-2 [Compound 12, 7-Bromo-4,11-dimethyl-2,13-dihydrobis[1,2,4]triazino[4,3-a:3',4'-c]quinoxaline] | R (R (IZ = 0 mm)) | R (R (IZ = 0 mm)) | R (R (IZ = 0 mm)) | 18 | 19 | 18 | 35.2 ± 4.18 (≈ 102 µM) | 34 ± 6.05 (≈ 98.6 µM) | 22.1 ± 2.81 (≈ 64 µM) | 23 ± 8.2 (≈ 66.5 µM) | 17 | R (R (IZ = 0 mm)) | 20 | 18 | – | – |
| Cc1cc(C)n(-c2nc3ccc(Br)cc3nc2-n2nc(C)cc2C)n1 [Compound 15, 6-Bromo-2,3-bis(3,5-dimethyl-1H-pyrazol-1-yl)quinoxaline] | R (R (IZ = 0 mm)) | R (R (IZ = 0 mm)) | R (R (IZ = 0 mm)) | 10 | 9 | 9 | 28.4 ± 5.8 (≈ 71.5 µM) | 22.7 ± 8.12 (≈ 57.2 µM) | 30.2 ± 2.04 (≈ 76.1 µM) | 18.2 ± 4.03 (≈ 45.7 µM) | 10 | 9 mm | 9 | 10 | – | – |
| COc1cccc2c1C(=O)c1c(O)c3c(c(O)c1C2=O)C[C@@](O)(C(=O)CO)C[C@@H]3O[C@H]1C[C@H](N)[C@H](O)[C@H](C)O1 [Doxorubicin, reference compound] | – | – | – | – | – | – | 0.04 ± 0.008 (≈ 0.0736 µM) | 0.09 ± 0.008 (≈ 0.166 µM) | 0.09 ± 0.007 (≈ 0.166 µM) | – | – | – | – | – | – | non-cytotoxic |
| CNC(C)C1CCC(N)C(OC2C(N)CC(N)C(OC3OCC(C)(O)C(NC)C3O)C2O)O1 (stereo not drawn) [Gentamicin, reference compound] | – | – | – | – | – | – | – | – | – | – | 20 | 18 mm | 17 | 23 | – | – |
